Measurements from patent publication US12692233B2, “Anthelmintic compounds comprising a pyridine structure” (Intervet Inc., priority 2020, dated 2026).

Assays:
C. elegans Slo-1a = C. elegans Slo-1a (Caenorhabditis elegans, UniProt Q95V25); experiment: Agonistic activity at C. elegans Slo-1a, FLIPR membrane potential in CHO K1 cells; details: EC50 agonistic activity at C. elegans Slo-1a, CHO K1 cells stably transfected with slo-1a, membrane potential dye
[1] = target: T1, human Maxi K channel (BK channel) (Homo sapiens, UniProt Q12791); experiment: Agonistic activity at the human Maxi K channel (BK channel), FLIPR membrane potential in CHO K1 cells; assay type: cell-based; details: CHO K1 cells stably transfected with KCNMA1 and beta1 (KCNMB1) subunits, membrane potential dye
T1 construct: expressed in transfected cells; host or cells: CHO K1
T1 sequence (Q12791 1-1178 isoform Q12791-5): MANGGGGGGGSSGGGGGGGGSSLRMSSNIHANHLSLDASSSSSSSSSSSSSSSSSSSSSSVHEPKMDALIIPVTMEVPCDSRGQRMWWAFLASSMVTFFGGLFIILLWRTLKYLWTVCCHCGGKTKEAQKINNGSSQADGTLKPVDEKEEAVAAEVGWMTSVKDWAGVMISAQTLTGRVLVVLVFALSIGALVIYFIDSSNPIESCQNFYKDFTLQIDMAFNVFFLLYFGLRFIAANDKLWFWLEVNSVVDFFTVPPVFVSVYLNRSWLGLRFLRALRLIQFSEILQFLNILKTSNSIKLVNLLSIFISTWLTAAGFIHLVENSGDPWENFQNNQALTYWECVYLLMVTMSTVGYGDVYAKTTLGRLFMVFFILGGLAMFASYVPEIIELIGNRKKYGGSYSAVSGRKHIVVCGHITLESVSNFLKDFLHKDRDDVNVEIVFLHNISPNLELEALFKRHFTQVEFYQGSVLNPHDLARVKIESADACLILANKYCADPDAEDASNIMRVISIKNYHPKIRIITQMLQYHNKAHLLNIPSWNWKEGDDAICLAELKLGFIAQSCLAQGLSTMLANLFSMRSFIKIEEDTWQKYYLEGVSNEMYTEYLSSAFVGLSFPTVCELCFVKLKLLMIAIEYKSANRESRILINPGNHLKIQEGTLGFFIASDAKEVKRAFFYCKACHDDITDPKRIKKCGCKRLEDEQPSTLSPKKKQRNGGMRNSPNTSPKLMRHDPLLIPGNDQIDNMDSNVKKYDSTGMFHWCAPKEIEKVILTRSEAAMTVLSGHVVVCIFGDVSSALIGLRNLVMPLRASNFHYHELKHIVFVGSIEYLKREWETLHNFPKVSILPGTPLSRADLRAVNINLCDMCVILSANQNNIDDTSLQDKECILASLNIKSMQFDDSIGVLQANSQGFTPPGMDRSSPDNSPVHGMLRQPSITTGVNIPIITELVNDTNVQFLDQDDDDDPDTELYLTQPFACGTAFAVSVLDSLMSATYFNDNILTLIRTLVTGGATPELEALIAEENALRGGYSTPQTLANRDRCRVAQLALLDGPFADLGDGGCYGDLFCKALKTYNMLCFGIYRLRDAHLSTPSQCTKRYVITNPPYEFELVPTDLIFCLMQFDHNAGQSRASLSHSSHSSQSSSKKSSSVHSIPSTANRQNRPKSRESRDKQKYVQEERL
T1 sequence (Q16558 whole entry partner): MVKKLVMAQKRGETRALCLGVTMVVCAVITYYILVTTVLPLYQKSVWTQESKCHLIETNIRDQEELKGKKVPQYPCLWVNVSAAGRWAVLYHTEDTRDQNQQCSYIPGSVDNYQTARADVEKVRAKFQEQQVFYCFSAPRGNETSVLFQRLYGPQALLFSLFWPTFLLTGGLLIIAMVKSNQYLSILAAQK
From the text: A CHO K1 cell line was stably transfected with the KCNMA1 (KCa1.1, U11058) and beta1 (KCNMB1) subunits of the human Maxi K channel (Ponte et al, Molecular Pharmacology 2012, 81(4), 567-577).
The complete measurement takes 150 s.

Ascaridia galli = experiment: In vitro assay Ascaridia galli larval stage 3; assay type: cell-based; details: larval stage 3, 20 larvae per well, microscopic examination, read-out: MEC (minimum effective concentration) against Ascaridia galli L3
From the text: […] galli (intestinal roundworm of chicken), larval stage 3 (“L3”); and Oesophagostumum dentatum (nodular worm of swine), larval stages 3 and 4 (respectively “L3” and “L4”) where suspended in a nutrient medium and distributed to 96 well plates with 20 larvae per well. The wells were spiked DMSO solutions of the compounds with declining concentration.

Chain of C. elegans Slo-1a (Q95V25 whole entry): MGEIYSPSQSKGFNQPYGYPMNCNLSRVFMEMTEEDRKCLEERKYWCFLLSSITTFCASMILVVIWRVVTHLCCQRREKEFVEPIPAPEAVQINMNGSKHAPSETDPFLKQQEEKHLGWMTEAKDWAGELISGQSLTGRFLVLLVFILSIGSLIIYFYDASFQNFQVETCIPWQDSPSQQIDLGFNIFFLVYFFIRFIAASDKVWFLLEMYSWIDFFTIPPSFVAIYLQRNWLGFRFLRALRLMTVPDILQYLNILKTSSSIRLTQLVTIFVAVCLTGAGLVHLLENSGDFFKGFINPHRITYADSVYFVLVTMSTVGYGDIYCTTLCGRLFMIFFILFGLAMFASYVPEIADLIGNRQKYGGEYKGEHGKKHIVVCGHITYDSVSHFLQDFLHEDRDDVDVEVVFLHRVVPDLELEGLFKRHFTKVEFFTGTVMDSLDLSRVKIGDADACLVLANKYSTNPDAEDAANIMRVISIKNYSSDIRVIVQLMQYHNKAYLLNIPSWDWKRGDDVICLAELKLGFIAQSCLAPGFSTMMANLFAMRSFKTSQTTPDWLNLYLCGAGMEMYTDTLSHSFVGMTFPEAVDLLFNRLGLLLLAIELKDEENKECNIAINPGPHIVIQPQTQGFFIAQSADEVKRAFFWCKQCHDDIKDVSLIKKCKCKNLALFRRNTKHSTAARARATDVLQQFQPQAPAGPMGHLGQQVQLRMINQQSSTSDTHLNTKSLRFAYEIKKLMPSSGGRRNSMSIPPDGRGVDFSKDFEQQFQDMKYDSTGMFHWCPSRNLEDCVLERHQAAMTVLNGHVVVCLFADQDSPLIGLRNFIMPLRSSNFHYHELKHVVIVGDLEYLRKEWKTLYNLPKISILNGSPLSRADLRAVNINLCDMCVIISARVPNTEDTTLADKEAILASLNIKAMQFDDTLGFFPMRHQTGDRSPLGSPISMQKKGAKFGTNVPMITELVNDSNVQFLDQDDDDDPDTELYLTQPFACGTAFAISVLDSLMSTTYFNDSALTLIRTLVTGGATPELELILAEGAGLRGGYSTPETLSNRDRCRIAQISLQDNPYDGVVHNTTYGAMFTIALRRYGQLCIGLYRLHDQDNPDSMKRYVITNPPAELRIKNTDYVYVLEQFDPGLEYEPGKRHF

EC50 (C. elegans Slo-1a) [µM] | EC50 [1] [µM] | SMILES | minimal effective concentration (Ascaridia galli) [µM]
< 1 | > 30 | O=C(N[C@H]1CCc2ccccc21)c1cnc(Oc2cccc(Cl)c2Cl)cc1N1CCOCC1 [Compound 7] | –
< 1 | > 30 | CN(C)c1cc(Sc2cccc(Cl)c2Cl)ncc1C(=O)N[C@H]1CCOc2ccccc21 [Compound 20] | –
< 1 | > 30 | CN(C)c1cc(Sc2cccc(Cl)c2Cl)ncc1C(=O)N[C@H]1CCc2ccccc21 [Compound 42] | –
– | > 30 | CCOc1cc(Oc2cc(Cl)cc(Cl)c2)ncc1C(=O)N[C@H]1CCCc2ccccc21 [Compound 98] | –
– | > 30 | CCSc1cc(Sc2cccc(Cl)c2Cl)ncc1C(=O)N[C@H]1CCc2ccccc21 [Compound 64] | –
– | > 30 | CN(C)c1cc(S(=O)(=O)c2cc(Cl)cc(Cl)c2)ncc1C(=O)N[C@H]1CCc2ccccc21 [Compound 105] | –
< 1 | > 30 | CN(C)c1cc(Oc2cc(Cl)cc(Cl)c2)ncc1C(=O)N[C@H]1CCc2ccccc21 [Compound 31] | –
– | > 30 | O=C(Nc1cccc2ccccc12)c1cnc(Sc2cc(Cl)cc(Cl)c2)cc1N1CCOCC1 [Compound 10] | ≤ 50
< 1 | > 30 | O=C(N[C@H]1CCCc2ccccc21)c1cnc(Sc2cc(Cl)cc(Cl)c2)cc1N1CCOCC1 [Compound 9] | –
– | > 30 | O=C(Nc1csc2ccccc12)c1cnc(Oc2cc(Cl)cc(Cl)c2)cc1N1CCOCC1 [Compound 47] | ≤ 50
< 1 | > 30 | O=C(N[C@H]1CCCc2ccccc21)c1cnc(Oc2cccc(Cl)c2Cl)cc1N1CCOCC1 [Compound 6] | –
< 1 | > 30 | CN(C)c1cc(Oc2cc(Cl)cc(Cl)c2)ncc1C(=O)N[C@H]1CCOc2ccccc21 [Compound 30] | –
– | > 30 | CN(C)c1cc(Sc2cccc(Cl)c2Cl)ncc1C(=O)Nc1cccc2ccccc12 [Compound 43] | –
– | > 30 | CCSc1cc(Oc2cc(Cl)cc(Cl)c2)ncc1C(=O)N[C@H]1CCOc2ccccc21 [Compound 80] | ≤ 50
– | > 30 | O=C(Nc1cccc2ccccc12)c1cnc(Sc2cccc(Cl)c2Cl)cc1N1CCOCC1 [Compound 49] | ≤ 50
– | > 30 | CCSc1cc(Oc2cccc(Cl)c2Cl)ncc1C(=O)N[C@H]1CCc2ccccc21 [Compound 78] | –
– | > 30 | CCSc1cc(Sc2cc(Cl)cc(Cl)c2)ncc1C(=O)N[C@H]1CCCc2ccccc21 [Compound 75] | –
– | > 30 | O=C(Nc1csc2ccccc12)c1cnc(Sc2cc(Cl)cc(Cl)c2)cc1N1CCOCC1 [Compound 27] | ≤ 50
– | > 30 | CCSc1cc(Sc2cccc(Cl)c2Cl)ncc1C(=O)N[C@H]1CCOc2ccccc21 [Compound 63] | –
< 10 | > 30 | CCOc1cc(Sc2cc(Cl)cc(Cl)c2)ncc1C(=O)N[C@H]1CCOc2ccccc21 [Compound 88] | –
– | > 30 | CN(C)c1cc(Sc2cccc(Cl)c2Cl)ncc1C(=O)Nc1csc2ccccc12 [Compound 44] | –
– | > 30 | CN(C)c1cc(Sc2cc(Cl)cc(Cl)c2)ncc1C(=O)N[C@H]1CCOc2ccccc21 [Compound 13] | –
< 1 | > 30 | CN(C)c1cc(Sc2cc(Cl)cc(Cl)c2)ncc1C(=O)N[C@H]1CCc2ccccc21 [Compound 15] | –
– | > 30 | CCOc1cc(Oc2cccc(Cl)c2Cl)ncc1C(=O)N[C@H]1CCCc2ccccc21 [Compound 91] | –
< 1 | > 30 | O=C(N[C@H]1CCOc2ccccc21)c1cnc(Oc2cc(Cl)cc(Cl)c2)cc1N1CCOCC1 [Compound 5] | –

EC50 (C. elegans Slo-1a) [µM] | EC50 [1] [µM] | SMILES | minimal effective concentration (Ascaridia galli) [µM]
– | > 30 | CCOc1cc(Oc2cc(Cl)cc(Cl)c2)ncc1C(=O)N[C@H]1CCOc2ccccc21 [Compound 89] | –
– | > 30 | CCSc1cc(Oc2cccc(Cl)c2Cl)ncc1C(=O)N[C@H]1CCCc2ccccc21 [Compound 76] | –
– | > 30 | COc1cc(Oc2cc(Cl)cc(Cl)c2)ncc1C(=O)N[C@H]1CCc2ccccc21 [Compound 87] | –
– | > 30 | O=C(Nc1cccc2ccccc12)c1cnc(Oc2cc(Cl)cc(Cl)c2)cc1N1CCOCC1 [Compound 26] | ≤ 50
– | > 30 | O=C(N[C@@H]1CCOc2ccccc21)c1cnc(Oc2cccc(Cl)c2Cl)cc1N1CCOCC1 [Compound 51] | –
– | > 30 | O=C(N[C@H]1CCc2ccccc21)c1cnc(Oc2cc(Cl)cc(Cl)c2)cc1N1CCOCC1 [Compound 25, (S)-6-(3,5-dichlorophenoxy)-N-(2,3-dihydro-1H-inden-1-yl)-4-morpholinonicotinamide] | –
< 1 | > 30 | O=C(N[C@H]1CCOc2ccccc21)c1cnc(Oc2cccc(Cl)c2Cl)cc1N1CCOCC1 [Compound 12] | –
– | > 30 | CCOc1cc(Sc2cccc(Cl)c2Cl)ncc1C(=O)N[C@H]1CCCc2ccccc21 [Compound 70] | –
< 1 | > 30 | O=C(N[C@H]1CCOc2ccccc21)c1cnc(Sc2cccc(Cl)c2Cl)cc1N1CCOCC1 [Compound 22] | –
< 10 | > 30 | CSc1cc(Sc2cc(Cl)cc(Cl)c2)ncc1C(=O)N[C@H]1CCCc2ccccc21 [Compound 69] | –
– | > 30 | CN(C)c1cc(Oc2cc(Cl)cc(Cl)c2)ncc1C(=O)Nc1csc2ccccc12 [Compound 38] | –
< 1 | > 30 | O=C(N[C@H]1CCCc2ccccc21)c1cnc(Oc2cc(Cl)cc(Cl)c2)cc1N1CCOCC1 [Compound 8] | –
< 10 | > 30 | CSc1cc(Oc2cc(Cl)cc(Cl)c2)ncc1C(=O)N[C@H]1CCCc2ccccc21 [Compound 59] | –
– | > 30 | CCSc1cc(Oc2cccc(Cl)c2Cl)ncc1C(=O)N[C@H]1CCOc2ccccc21 [Compound 77] | –
< 1 | > 30 | O=C(N[C@H]1CCc2ccccc21)c1cnc(Sc2cc(Cl)cc(Cl)c2)cc1N1CCOCC1 [Compound 11] | –
– | > 30 | CN(C)c1cc(Sc2cc(Cl)cc(Cl)c2)ncc1C(=O)Nc1csc2ccccc12 [Compound 33] | ≤ 50
< 10 | > 30 | CCOc1cc(Sc2cccc(Cl)c2Cl)ncc1C(=O)N[C@H]1CCOc2ccccc21 [Compound 71] | –
– | > 30 | CCSc1cc(Oc2cc(Cl)cc(Cl)c2)ncc1C(=O)N[C@H]1CCc2ccccc21 [Compound 81] | –
< 1 | > 30 | O=C(N[C@H]1CCOc2ccccc21)c1cnc(Sc2cc(Cl)cc(Cl)c2)cc1N1CCOCC1 [Compound 3, (S)—N-(chroman-4-yl)-6-((3,5-dichlorophenyl)thio)-4-morpholinonicotinamide] | –
< 10 | > 30 | CSc1cc(Sc2cc(Cl)cc(Cl)c2)ncc1C(=O)N[C@H]1CCc2ccccc21 [Compound 65] | –
– | > 30 | CCOc1cc(Oc2cccc(Cl)c2Cl)ncc1C(=O)N[C@H]1CCc2ccccc21 [Compound 93] | –
– | > 30 | CN(C)c1cc([S+]([O-])c2cc(Cl)cc(Cl)c2)ncc1C(=O)N[C@H]1CCc2ccccc21 (stereo partly drawn) [Compound 104, 6-((3,5-dichlorophenyl)sulfinyl)-N—((S)-2,3-dihydro-1H-inden-1-yl)-4-(dimethylamino)nicotinamide] | –
– | > 30 | CSc1cc(Oc2cc(Cl)cc(Cl)c2)ncc1C(=O)N[C@H]1CCc2ccccc21 [Compound 61] | ≤ 50
– | > 30 | CCSc1cc(Oc2cc(Cl)cc(Cl)c2)ncc1C(=O)N[C@H]1CCCc2ccccc21 [Compound 79] | –
